Laboratory results as given in article PMC9537541, “Synthesis and anticancer activity of new benzensulfonamides incorporating s-triazines as cyclic linkers for inhibition of carbonic anhydrase IX” (Scientific Reports, 2022).
Counter-ions that a name gives are not always drawn.

Assays:
[1] = molecular target: T1, hCA XII (Homo sapiens, UniProt O43570); test: stopped-flow CO2 hydrase assay, hCA XII; type: biochemical; conditions: for Selectivity index (SI) I/XII: hCA XII over off-target hCA I; for Selectivity index (SI) II/XII: hCA XII over off-target hCA II; for Ki: stopped flow technique, mean from 3 different assays
T1 construct: made in house
T1 sequence (O43570 25-354): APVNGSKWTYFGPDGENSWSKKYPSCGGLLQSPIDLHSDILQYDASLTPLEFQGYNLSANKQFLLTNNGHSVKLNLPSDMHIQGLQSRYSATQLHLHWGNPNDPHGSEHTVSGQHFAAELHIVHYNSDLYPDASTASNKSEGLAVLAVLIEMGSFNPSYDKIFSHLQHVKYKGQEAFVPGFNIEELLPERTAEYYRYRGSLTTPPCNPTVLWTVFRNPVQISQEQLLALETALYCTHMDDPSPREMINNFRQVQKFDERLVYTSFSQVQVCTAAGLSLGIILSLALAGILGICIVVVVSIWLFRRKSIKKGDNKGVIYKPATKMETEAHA
Procedure: (§1) Target compounds of series (A) and (B) were screened as inhibitors concerning the physiologically relevant hCAs; cytosolic isoforms (hCA I and II) in addition to the transmembrane tumor related isoforms (hCA IX and XII) via a stopped-flow assay of carbonic anhydrase catalyzed CO2 hydration. Acetazolamide (AAZ), CA I drug, was also incorporated in the assays as a standard drug. […] Four CA isoforms inhibition activity was measured by assaying CA catalyzed CO2 hydration via an applied photophysics stopped-flow instrument. PRISM 3 and the Cheng-prusoff equation were used to determine the inhibition constant by non-linear least square methods as reported, and represent the mean from three different determination at least. All tested carbonic anhydrase isoforms were recombinant proteins prepared in lab as described earlier,[57].

[2] = test system: Breast cancer (MDA-MB-468); test: NCI single dose SRB screen, MDA-MB-468; type: cell-based; conditions: Homo sapiens, MDA-MB-468, 48 h, 10^−5 M single dose, 48 h, SRB; read-out: GI% Breast cancer (MDA-MB-468)
Procedure: (§2) Target compounds in series (A) and (B), were submitted to the National Cancer Institute (NCI) Developmental Therapeutic Program (www.dtp.nci.nih.gov), where they have been assessed, in vitro for their anticancer activity. Two series (A) and (B), were screened in a single dose (10 µM) versus full panel composed of 60 cancer cell lines, in accordance with protocol of drug evaluation branch, NCI, Bethesda. Sulforhodamine B (SRB) colorimetric assay was used to determine cell growth and viability,[40].
(§3) Protocol of Drug Evaluation Branch, NCI, Bethesda, was adopted in the antitumor assay. Assessment of cell growth and viability was carried out utilizing SRB assay and 48 h drug exposure protocol as previously reported,[40].

[3] = test system: CNS cancer (SNB-75); test: NCI single dose SRB screen, SNB-75; type: cell-based; conditions: Homo sapiens, SNB-75, 48 h, 10^−5 M single dose, read-out: GI% CNS cancer (SNB-75)
Procedure: as §2, §3

[4] = test system: Renal cancer (UO-31); test: NCI single dose SRB screen, UO-31; type: cell-based; conditions: Homo sapiens, UO-31, 48 h, 10^−5 M single dose, read-out: GI% Renal cancer (UO-31)
Procedure: as §2, §3

[5] = molecular target: T2, hCA I (Homo sapiens, UniProt P00915); test: stopped-flow CO2 hydrase assay, hCA I; type: biochemical; conditions: stopped flow technique, mean from 3 different assays
T2 construct: made in house
T2 sequence (P00915 whole entry): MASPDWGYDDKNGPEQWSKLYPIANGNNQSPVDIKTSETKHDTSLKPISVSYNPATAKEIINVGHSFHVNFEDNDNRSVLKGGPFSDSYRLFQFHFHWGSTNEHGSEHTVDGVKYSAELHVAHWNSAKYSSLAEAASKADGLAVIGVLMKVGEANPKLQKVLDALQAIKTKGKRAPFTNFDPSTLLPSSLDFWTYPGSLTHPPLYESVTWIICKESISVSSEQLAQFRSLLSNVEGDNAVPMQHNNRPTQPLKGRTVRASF
Procedure: as §1

[6] = molecular target: T3, hCA IX (Homo sapiens, UniProt Q16790); test: stopped-flow CO2 hydrase assay, hCA IX; type: biochemical; conditions: for Selectivity index (SI) I/IX: hCA IX over off-target hCA I; for Selectivity index (SI) II/IX: hCA IX over off-target hCA II; for Ki: stopped flow technique, mean from 3 different assays
T3 construct: made in house
Procedure: as §1

[7] = test system: Leukemia (SR); test: NCI single dose SRB screen, SR; type: cell-based; conditions: 48 h, 10^−5 M single dose, read-out: GI% Leukemia (SR)
Procedure: as §2, §3

[8] = molecular target: T4, hCA II (Homo sapiens, UniProt P00918); test: stopped-flow CO2 hydrase assay, hCA II; type: biochemical; conditions: stopped flow technique, mean from 3 different assays
T4 construct: made in house
Procedure: as §1

SMILES	melting point [°C]	Selectivity index (SI) I/XII [1]	Selectivity index (SI) II/XII [1]	Ki [1] [µM]	inhibition at 10 µM [2] [%]	inhibition at 10 µM [3] [%]	inhibition at 10 µM [4] [%]	Ki [5] [µM]	Selectivity index (SI) I/IX [6]	Selectivity index (SI) II/IX [6]	Ki [6] [µM]	inhibition at 10 µM [7] [%]	Ki [8] [µM]
CC1CCC2(CC1)N=C(N)N=C(N)N2c1ccc(S(=O)(=O)Nc2ccccn2)cc1 (stereo not shown) (as salt: HCl) [Compound 6f., 4-(2,4-Diamino-9-methyl-1,3,5-triazaspiro[5.5]undeca-2,4-dien-1-yl)-N-(pyridin-2-yl)benzene-1-sulfonamide.HCl]	217 to 219												
NC1=NC2(CCCC2)N(c2ccc(S(N)(=O)=O)cc2)C(N)=N1 [Compound 6a, 4-(7,9-Diamino-6,8,10-triazaspiro[4.5]deca-7,9-dien-6-yl) benzene-1-sulfonamide HCl]		0.1	0.2	5.34	18	≤ 10	19	0.628	0.6	0.8	1.06	13	0.832
NC1=NC2(CCCCC2)N(c2ccc(S(N)(=O)=O)cc2)C(N)=N1 (as salt: HCl) [Compound 6b, 4-(2,4-Diamino-1,3,5-triazaspiro[5.5]undeca-2,4-dien-1-yl)benzene-1-sulfonamide.HCl]	257 to 259												
CC1CCC2(CC1)N=C(N)N=C(N)N2c1ccc(S(=O)(=O)Nc2nccs2)cc1 (stereo not shown) (as salt: HCl) [Compound 6j, 4-(2,4-Diamino-9-methyl-1,3,5-triazaspiro[5.5]undeca-2,4-dien-1-yl)-N-(1,3-thiazol-2-yl)benzene-1-sulfonamide.HCl]	243 to 245												
NC1=NC2(CCCC2)N(c2ccc(S(=O)(=O)Nc3nccs3)cc2)C(N)=N1 [Compound 6h, 4-{7,9-Diamino-6,8,10-triazaspiro[4.5]deca-7,9-dien-6-yl}-N-(1,3-thiazol-2-yl)benzene-1-sulfonamide.HCl]				> 10	≤ 10	≤ 10	17	> 10			> 10	≤ 10	> 10
CC1CCC2(CC1)N=C(N)N=C(N)N2c1ccc(S(N)(=O)=O)cc1 (stereo not shown) [Compound 6c, 4-(2,4-Diamino-9-methyl-1,3,5-triazaspiro[5.5]undeca-2,4-dien-1-yl)benzene-1-sulfonamide.HCl]		0.02	0.04	4.91	≤ 10	21	16	0.145	0.1	0.1	1.85	≤ 10	0.179
NC1=NC2(CCCCCC2)N(c2ccc(S(=O)(=O)Nc3ccccn3)cc2)C(N)=N1 [Compound 6g, 4-(2,4-Diamino-1,3,5-triazaspiro[5.6]dodeca-2,4-dien-1-yl)-N-(pyridin-2-yl)benzene-1-sulfonamide.HCl]				> 10	≤ 10	33	14	> 10			> 10	≤ 10	> 10
CC1CCC2(CC1)N=C(N)N=C(N)N2c1ccc(S(=O)(=O)Nc2ccccn2)cc1 (stereo not shown) [Compound 6f., 4-(2,4-Diamino-9-methyl-1,3,5-triazaspiro[5.5]undeca-2,4-dien-1-yl)-N-(pyridin-2-yl)benzene-1-sulfonamide.HCl]				> 10	≤ 10	23	11	> 10			> 10	≤ 10	> 10
NC1=NC2(CCCCC2)N(c2ccc(S(=O)(=O)Nc3nccs3)cc2)C(N)=N1 [Compound 6i, 4-(2,4-Diamino-1,3,5-triazaspiro[5.5]undeca-2,4-dien-1-yl)-N-(1,3-thiazol-2-yl)benzene-1-sulfonamide.HCl]				> 10	≤ 10	≤ 10	14	> 10			> 10	≤ 10	> 10
NC1=NC2(CCCCC2)N(c2ccc(S(=O)(=O)Nc3ccccn3)cc2)C(N)=N1 [Compound 6e, 4-(2,4-Diamino-1,3,5-triazaspiro[5.5]undeca-2,4-dien-1-yl)-N-(pyridin-2-yl)benzene-1-sulfonamide.HCl]				> 10	≤ 10	≤ 10	11	> 10			> 10	≤ 10	> 10
CC1CCC2(CC1)N=C(N)N=C(N)N2c1ccc(S(=O)(=O)Nc2nccs2)cc1 (stereo not shown) [Compound 6j, 4-(2,4-Diamino-9-methyl-1,3,5-triazaspiro[5.5]undeca-2,4-dien-1-yl)-N-(1,3-thiazol-2-yl)benzene-1-sulfonamide.HCl]				> 10	≤ 10	29	17	> 10			> 10	≤ 10	> 10
NC1=NC2(CCCC2)N(c2ccc(S(=O)(=O)Nc3ccccn3)cc2)C(N)=N1 [Compound 6d, 4-(7,9-Diamino-6,8,10-triazaspiro[4.5]deca-7,9-dien-6-yl}-N-(pyridin-2-yl)benzene-1-sulfonamide.HCl]				> 10	≤ 10	30	12	> 10			> 10	≤ 10	> 10
CC1(C)N=C(N)N=C(N)N1c1ccc(S(N)(=O)=O)cc1 [Compound 5a, 4-(4,6-Diamino-1-phenyl-1,2-dihydro-2,2-dimethyl-1,3,5-triazin-1-yl) benzene-1-sulfonamide HCl]		0.3	0.2	3.52	≤ 10	29	≤ 10	0.884	6.7	6.8	0.135	≤ 10	0.913
CC1(C)N=C(N)N=C(N)N1c1ccc(S(=O)(=O)Nc2nccs2)cc1 [Compound 5c, 4-(4,6-Diamino-2,2-dimethyl-1,2-dihydro-1,3,5-triazin-1-yl)-N-(thiazol-2-yl)benzene-1-sulfonamide.HCl]				> 10	≤ 10	35	11	> 10			> 10	≤ 10	> 10
NC1=NC2(CCCCC2)N(c2ccc(S(N)(=O)=O)cc2)C(N)=N1 [Compound 6b, 4-(2,4-Diamino-1,3,5-triazaspiro[5.5]undeca-2,4-dien-1-yl)benzene-1-sulfonamide.HCl]		0.1	0.2	4.85	≤ 10	28	≤ 10	0.437	0.4	0.8	1.16	≤ 10	0.915
